Each block holds one molecule with its values, some of them ahead of it.
What was measured:
[1] = target: T1, Tyrosine-protein phosphatase non-receptor type 2 (Homo sapiens, UniProt P17706); experiment: Inhibition of TCPTP
T1 sequence (P17706 whole entry): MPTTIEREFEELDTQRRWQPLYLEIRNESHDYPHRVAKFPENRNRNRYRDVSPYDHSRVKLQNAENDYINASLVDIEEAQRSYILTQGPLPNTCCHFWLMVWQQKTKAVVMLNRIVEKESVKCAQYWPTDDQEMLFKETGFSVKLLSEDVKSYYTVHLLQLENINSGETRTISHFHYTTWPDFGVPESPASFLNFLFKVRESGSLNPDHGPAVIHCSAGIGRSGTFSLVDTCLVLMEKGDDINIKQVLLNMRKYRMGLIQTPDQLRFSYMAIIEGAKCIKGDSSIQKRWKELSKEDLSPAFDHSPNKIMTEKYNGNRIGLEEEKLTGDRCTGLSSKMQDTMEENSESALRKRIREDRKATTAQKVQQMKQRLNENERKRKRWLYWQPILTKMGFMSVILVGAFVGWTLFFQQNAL

[2] = target: T2, Tyrosine-protein phosphatase non-receptor type 1 (Homo sapiens, UniProt P18031); experiment: Inhibition of PTP1B
T2 sequence (P18031 whole entry): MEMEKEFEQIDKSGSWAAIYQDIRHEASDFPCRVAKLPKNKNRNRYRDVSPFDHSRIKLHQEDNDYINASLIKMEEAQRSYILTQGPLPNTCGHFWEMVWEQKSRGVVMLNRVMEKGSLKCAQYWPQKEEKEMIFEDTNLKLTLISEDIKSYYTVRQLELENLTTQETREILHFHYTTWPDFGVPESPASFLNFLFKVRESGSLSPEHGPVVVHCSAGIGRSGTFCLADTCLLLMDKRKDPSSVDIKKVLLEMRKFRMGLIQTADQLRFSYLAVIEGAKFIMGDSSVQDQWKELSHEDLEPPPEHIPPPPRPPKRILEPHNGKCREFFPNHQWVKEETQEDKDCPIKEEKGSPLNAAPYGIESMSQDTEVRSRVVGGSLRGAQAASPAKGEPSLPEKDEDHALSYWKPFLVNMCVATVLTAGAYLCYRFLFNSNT

[3] = target: Receptor-type tyrosine-protein phosphatase beta (Homo sapiens, UniProt P23467); experiment: Inhibition of human protein-tyrosine phosphatase beta
Receptor-type tyrosine-protein phosphatase beta, sequence (P23467 whole entry): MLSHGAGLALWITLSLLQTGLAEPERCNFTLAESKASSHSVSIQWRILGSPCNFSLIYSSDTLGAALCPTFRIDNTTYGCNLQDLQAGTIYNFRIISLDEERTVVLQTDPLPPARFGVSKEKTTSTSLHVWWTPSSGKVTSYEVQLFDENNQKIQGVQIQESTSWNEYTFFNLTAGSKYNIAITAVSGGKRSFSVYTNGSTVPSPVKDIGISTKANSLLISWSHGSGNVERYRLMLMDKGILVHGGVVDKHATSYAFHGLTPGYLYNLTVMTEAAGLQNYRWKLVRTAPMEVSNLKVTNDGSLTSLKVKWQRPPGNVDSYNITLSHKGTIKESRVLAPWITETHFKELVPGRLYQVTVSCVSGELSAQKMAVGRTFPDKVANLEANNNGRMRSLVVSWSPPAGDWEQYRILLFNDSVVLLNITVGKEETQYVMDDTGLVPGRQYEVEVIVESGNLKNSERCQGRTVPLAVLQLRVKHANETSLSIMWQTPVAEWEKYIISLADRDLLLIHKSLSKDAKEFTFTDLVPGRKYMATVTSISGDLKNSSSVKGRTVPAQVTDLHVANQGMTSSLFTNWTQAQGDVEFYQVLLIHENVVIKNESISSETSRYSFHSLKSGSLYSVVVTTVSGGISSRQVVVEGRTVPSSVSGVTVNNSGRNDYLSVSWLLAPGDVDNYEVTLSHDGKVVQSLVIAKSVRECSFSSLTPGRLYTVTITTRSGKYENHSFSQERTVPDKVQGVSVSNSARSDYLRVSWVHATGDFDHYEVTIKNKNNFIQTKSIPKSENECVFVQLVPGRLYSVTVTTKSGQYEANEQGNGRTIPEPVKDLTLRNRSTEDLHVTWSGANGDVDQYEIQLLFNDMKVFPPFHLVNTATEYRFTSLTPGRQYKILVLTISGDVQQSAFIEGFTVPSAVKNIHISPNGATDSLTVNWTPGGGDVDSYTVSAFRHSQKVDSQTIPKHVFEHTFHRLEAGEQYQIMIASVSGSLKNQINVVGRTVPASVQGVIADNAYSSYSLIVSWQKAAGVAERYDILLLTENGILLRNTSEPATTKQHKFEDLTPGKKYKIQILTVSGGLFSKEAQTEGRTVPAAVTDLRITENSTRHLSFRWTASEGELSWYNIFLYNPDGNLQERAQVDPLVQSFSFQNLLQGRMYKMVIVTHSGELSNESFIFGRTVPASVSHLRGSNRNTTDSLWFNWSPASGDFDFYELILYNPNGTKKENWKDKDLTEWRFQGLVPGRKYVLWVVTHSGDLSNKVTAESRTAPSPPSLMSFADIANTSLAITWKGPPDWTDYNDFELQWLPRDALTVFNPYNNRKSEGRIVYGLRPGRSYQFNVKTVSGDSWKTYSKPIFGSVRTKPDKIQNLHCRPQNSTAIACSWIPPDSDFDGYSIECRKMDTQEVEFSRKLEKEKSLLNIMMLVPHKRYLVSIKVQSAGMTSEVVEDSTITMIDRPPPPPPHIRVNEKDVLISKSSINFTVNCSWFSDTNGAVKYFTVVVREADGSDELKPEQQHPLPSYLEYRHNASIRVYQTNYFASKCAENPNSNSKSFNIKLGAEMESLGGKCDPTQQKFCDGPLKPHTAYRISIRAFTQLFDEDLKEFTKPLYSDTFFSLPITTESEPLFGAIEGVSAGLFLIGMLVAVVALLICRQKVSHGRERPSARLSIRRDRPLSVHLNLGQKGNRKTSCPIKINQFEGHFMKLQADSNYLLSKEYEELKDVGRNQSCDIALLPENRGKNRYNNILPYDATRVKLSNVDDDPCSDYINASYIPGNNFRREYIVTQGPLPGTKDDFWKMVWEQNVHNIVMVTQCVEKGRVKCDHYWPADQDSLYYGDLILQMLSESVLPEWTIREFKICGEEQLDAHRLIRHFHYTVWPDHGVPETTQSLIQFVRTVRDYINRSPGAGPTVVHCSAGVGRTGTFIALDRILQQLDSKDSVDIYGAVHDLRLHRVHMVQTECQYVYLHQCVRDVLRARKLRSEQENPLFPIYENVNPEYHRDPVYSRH

[4] = Selectivity ratio of Ki for TCPTP to Ki for PTP1B
[5] = Permeability across human Caco-2 cell membrane; format: ADME, cell-based; conditions: read-out: permeability
[6] = Selectivity ratio of IC50 for TCPTP to IC50 for PTP1B
C2C12 = experiment: Augmentation of insulin-stimulated 2-deoxy-D-glucose uptake in mouse C2C12 cells at 100 uM; format: functional
[7] = target: T2, Tyrosine-protein phosphatase non-receptor type 1; experiment: Inhibition of PTP1B by competitive inhibition assay

IC50 [1]: 250 nM
SMILES: O=C1C[C@@H](c2ccc(C[C@H](Nc3nc4ccccc4s3)c3nc4ccccc4[nH]3)cc2F)S(=O)(=O)N1

IC50 [1]: 120 nM
SMILES: N#Cc1ccc2cc(Br)c(C(F)(F)P(=O)(O)O)cc2c1

IC50 [2]: 2500 nM
SMILES: O=S(=O)(Nc1ccc(Oc2ccc(Oc3ccc(NS(=O)(=O)C(F)(F)F)cc3)cc2)cc1)C(F)(F)F

IC50 [2]: > 20000 nM
SMILES: CN(CCCCCl)P(=O)(OCc1ccc([N+](=O)[O-])o1)C(F)(F)c1ccc(CC(=O)N[C@@H](CC(=O)O)C(=O)N[C@@H](Cc2ccc(C(F)(F)P(=O)(OCc3ccc([N+](=O)[O-])o3)N(C)CCCCCl)cc2)C(=O)ON)cc1 (some centres undefined)

IC50 [2]: 70 nM
IC50 [3]: 0.3 nM
SMILES: CCc1csc([C@H](Cc2ccc(NS(=O)(=O)O)cc2)NC(=O)[C@H](CC(C)C)C(=O)OC)n1

Ratio Ki [4]: 20
Papp [5]: > 10 ×10⁻⁶ cm/s
SMILES: COC(=O)c1c(O)cccc1OCCCCNC(=O)[C@H](Cc1ccc(OCC(=O)O)c(O)c1)NC(C)=O

IC50 [1]: > 30000 nM
SMILES: COC(=O)c1c(O)cccc1OC/C=C/c1cccc(-c2onc(C(=O)O)c2N)c1

IC50 [2]: 23 nM
IC50 [1]: 25 nM
Ratio IC50 [6]: 1
SMILES: Cc1cc(CC(NS(=O)(=O)c2cccc(F)c2)C2=N[C@H](CCOc3ccccc3S(C)(=O)=O)CN2)ccc1C1CC(=O)NS1(=O)=O (some centres undefined)

Ki [1]: 65 nM
SMILES: CCc1cc(C[C@H](NC(C)=O)C(=O)NCCCCOc2cccc(O)c2C(=O)OC)ccc1N(C(=O)C(=O)O)c1ccccc1C(=O)O

IC50 [2]: 3200 nM
SMILES: Cc1nc(-c2ccc(Cl)cc2)sc1CCc1cccc(C(O)(C(=O)O)C(F)(F)F)c1 (centres undefined)

Ratio IC50 [6]: 1.9
SMILES: CNC(=O)[C@@H]1Cc2ccc(NS(=O)(=O)O)cc2CN1C(=O)CCc1cccc(NS(=O)(=O)O)c1

IC50 [2]: 16 nM
SMILES: CCC(CC)c1ccc(N(Cc2cccc(-c3ccc(COc4ccc(C[C@H](NC(C)=O)C(=O)O)cc4)cc3)c2)C(C)C)cc1

IC50 [1]: 150 nM
SMILES: Cc1cc(C[C@H](NS(=O)(=O)c2ccccc2)c2nc3ccccc3[nH]2)ccc1N1CC(=O)NS1(=O)=O

Papp [5]: < 1 ×10⁻⁶ cm/s
SMILES: O=C(O)C(=O)Nc1sc2c(c1C(=O)O)CCN[C@H]2CNC(=O)c1cc2cc(F)ccc2[nH]1
Activity (C2C12): 70%

IC50 [2]: 600 nM
SMILES: Cc1ccccc1S(=O)(=O)N(Cc1ccc(C(=O)C(F)(F)P(=O)(O)O)cc1)Cc1ccc(C(=O)C(F)(F)P(=O)(O)O)cc1

IC50 [1]: 25 nM
SMILES: Cc1cc(C[C@H](NS(=O)(=O)c2ccccc2)c2nc3ccccc3[nH]2)ccc1[C@@H]1CC(=O)NS1(=O)=O

IC50 [2]: < 30 nM
SMILES: COc1ccc2cc(O)c(N3CC(=O)NS3(=O)=O)cc2c1

IC50 [2]: 12.6 nM
SMILES: CS(=O)(=O)OC1C(Cl)CCCC1Cc1ccc(N2CC(=O)CS2(=O)=O)c(O)c1 (centres undefined)

Ratio IC50 [6]: 1.3
Ki [7]: 1800 nM
SMILES: COc1cc(/C=C2\SC(=S)N(c3cccc(Cl)c3)C2=O)cc([N+](=O)[O-])c1O

IC50 [2]: 14 nM
SMILES: O=C1CN(c2c(O)cc(CC3CCCCC3)cc2F)S(=O)(=O)C1

IC50 [2]: 8000 nM
SMILES: O=S(=O)(O)C(F)(F)c1cccc(-c2ccc(-c3ccccc3)cc2)c1

Ki [1]: 26 nM
SMILES: NC(=O)[C@H](Cc1ccc(C(F)(F)P(=O)(O)O)cc1)NC(=O)[C@H](CC(=O)O)NC(=O)Cc1ccc(C(F)(F)P(=O)(O)O)cc1

Ki [2]: 8400 nM
Ki [1]: > 200000 nM
Ratio Ki [4]: > 23
SMILES: COC(=O)c1c(O)cccc1OCCCCNC(=O)[C@H](Cc1ccc(OC(C(=O)O)C(=O)NC2CC2)cc1)NC(=O)OC(C)(C)C (some centres undefined)

Ki [2]: 4300 nM
SMILES: Cc1sc(-c2cccc(NC3CCN(S(=O)(=O)Cc4ccccc4)CC3)c2)cc1C1CC(=O)NS1(=O)=O (centres undefined)

IC50 [1]: 28 nM
Ratio IC50 [6]: 1
SMILES: CN(C)S(=O)(=O)c1ccc(CN(Cc2ccc(C(F)(F)P(=O)(O)O)c(Br)c2)S(=O)(=O)c2ccc(OCC(=O)O)cc2)cc1
